A short description of data set [1]: Rat in vivo study: plasma pharmacokinetics of MRE-269 after oral capsule dosing. More on the design: species or system Sprague-Dawley rat. The method, then:
Qualicaps, Nara, Japan) and given orally to male Sprague-Dawley rat (Japan SLC, Sizuoka, Japan) at a dose level of 1 mg/capsule/body. […] • The concentration of MRE-269 in plasma sample was determined by high performance liquid chromatography (HPLC) tandem mass spectrometry (LC-MS/MS). […] For LC-MS/MS, a Nexera HPLC system (Shimadzu, Kyoto, Japan) equipped with an InertSustain C18 column (2-μm particle size; 2.1 mm i.d.×50 mm; GL Science) connected to a TQ4500 or TQ5500 tandem mass spectrometer (Sciex, Framingham, Mass.) was used. The HPLC mobile phase was 0.1% formic acid (solvent A) and acetonitrile (solvent B). A gradient was run at 85% solvent B in 2.5 min at a flow rate of 0.4 mL/min and 40° C. Each analyte detected was quantified in positive ion multiple reaction monitoring mode by applying the following precursor-to-product transitions: […] • The pharmacokinetic parameters were calculated with Phoenix WinNonlin version 8.1.0 (Certara Princeton, NJ). Relative bioavailability (BA) to MRE-269 was calculated according to the following equation. Relative BA (%)=(AUC0-24(each salt)/(AUC0-24(MRE-269, mean)×100

Data set [2] can be described thus: Thermodynamic stability of the free-form crystal. Format: physicochemical. Conditions: free form produced according to Example 42 of PTL 1. An excerpt:
A method for producing Compound B is disclosed in Example 42 of PTL 1. […] Thus, the present invention was completed.

Where [3] appears, read: MRE-269 in plasma, male Sprague-Dawley rat, oral, HPMC capsule, 1 mg/capsule/body.

From patent US20220281830A1, “SALT” (NIPPON SHINYAKU CO., LTD., priority 2019, published 2022) come the findings set out here.

What is called AUC(0-t) is the area under the concentration-time curve up to a stated or last time point. A lower AUC(0-t) goes with less exposure. One may read the Cmax as the highest concentration seen after dosing.

The structures appear in SMILES notation. Read-outs that look alike come from different tables or passages of the source.

For `CC(C)N(CCCCOCC(=O)O)c1cnc(-c2ccccc2)c(-c2ccccc2)n1.O=S(=O)(O)CCS(=O)(=O)O` [1,2-Ethanedisulfonate salt (Pattern A), 1,2-Ethanedisulfonate salt of 2-[4-[(5,6-diphenylpyrazin-2-yl)-propan-2-ylamino]butoxy]acetic acid], in data set [1] (rat, in vivo, po), the t1/2 worked out at 3.99 ± 2.01 h and the tmax stood at 3.10 ± 2.30 h.
In data set [1] (rat, in vivo, po), `CC(C)N(CCCCOCC(=O)[O-])c1cnc(-c2ccccc2)c(-c2ccccc2)n1.CC(C)N(CCCCOCC(=O)[O-])c1cnc(-c2ccccc2)c(-c2ccccc2)n1.[Ca+2]` [Calcium salt (Pattern 1), Calcium salt of 2[4-[(5,6-diphenylpyrazin-2-yl)-propan-2-ylamino]butoxy]acetic acid] registered a tmax of 7.50 ± 3.79 h.
Molecule `CC(C)N(CCCCOCC(=O)O)c1cnc(-c2ccccc2)c(-c2ccccc2)n1` [MRE-269, 2-(4-((5,6-diphenylpyrazin-2-yl)(isopropyl)amino)butoxy)acetic acid, reference compound] gave an AUC(0-t) in data set [1] (setting [3]) of 5620 ± 1920 ng·h/mL. The Cmax in data set [1] (MRE-269 in plasma, male Sprague-Dawley rat, oral, HPMC capsule, 1 mg/capsule/body, read-out: Cmax) was found to be 475 ± 142 ng/mL. Moreover, the tmax in data set [1] (MRE-269 in plasma, male Sprague-Dawley rat, oral, HPMC capsule, 1 mg/capsule/body, read-out: tmax) is 6.5 ± 3 h.
In data set [1] (rat, in vivo, po), `CC(C)N(CCCCOCC(=O)[O-])c1cnc(-c2ccccc2)c(-c2ccccc2)n1.[K+]` [Potassium salt, Potassium salt of 2-[4-[(5,6-diphenylpyrazin-2-yl)-propan-2-ylamino]butoxy]acetic acid] came in with a t1/2 of 8.96 ± 8.00 h and a tmax of 3.25 ± 3.20 h.
Turning to `CC(C)N(CCCCOCC(=O)[O-])c1cnc(-c2ccccc2)c(-c2ccccc2)n1.[Na+]` [Sodium salt, Sodium salt of 2-[4-[(5,6-diphenylpyrazin-2-yl)-propan-2-ylamino]butoxy]acetic acid], the tmax in data set [1] (rat, in vivo, po) was 7.50 ± 1.91 h.
In the case of `CC(C)N(CCCCOCC(=O)O)c1cnc(-c2ccccc2)c(-c2ccccc2)n1.NC(CO)(CO)CO` [Tromethamine salt, Tromethamine salt of 2-[4-[(5,6-diphenylpyrazin-2-yl)-propan-2-ylamino]butoxy]acetic acid], in data set [1] (setting [3]), the AUC0-last was 7170 ± 2320 ng·h/mL, the “AUC0-∞” value came to 6520 ± 1890 ng·h/mL, the Cmax was 949 ± 555 ng/mL and the t1/2 stood at 3.48 ± 0.43 h. Besides, the tmax in data set [1] (setting [3]) turned out to be 4.00 ± 3.94 h. Moreover, the “relative BA” value in data set [1] (relative to MRE-269: AUC0-24(each salt)/AUC0-24(MRE-269, mean)×100, rat, oral, 1 mg/capsule/body) was 128 ± 41%.
For `CC(C)N(CCCCOCC(=O)O)c1cnc(-c2ccccc2)c(-c2ccccc2)n1` [form-III crystal, 2-(4-((5,6-diphenylpyrazin-2-yl)(isopropyl)amino)butoxy)acetic acid], the thermodynamic stability result in data set [2] was “thermodynamically unstable”.
